Values joined by “and” are separate entries in the source; they are usually repeats but may differ in a detail not shown here. Identical values can stand only once.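 A five-concentration, 48-hour dose response in 96-well plates underlies each endpoint, interpolated linearly between surrounding concentrations. GI50: concentration for 50% inhibition of growth. The concentration for full growth arrest is given as TGI.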
The molecules below were run on HCC-2998 colon (assay: NCI anticancer screen, dose series, 48 h).
With `Cc1cc(O)c2c(c1)C(=O)C=CC2=O` the TGI was 25.4 µM and 30 µM. `CC1(C)N=C(N)N=C(N)N1c1ccc(CCC(=O)Nc2ccc(S(=O)(=O)F)cc2)cc1` showed a GI50 of 3.85 µM and a TGI of over 100 µM. `N#CC1(c2ccc(NC(=O)c3cccnc3NCc3ccncc3)cc2)CCCC1` gave a GI50 of 25.8 µM and a TGI of over 100 µM. Work on `Cn1nccc1Nc1nccc(-c2ccn([C@H](CO)c3ccc(Cl)c(F)c3)c(=O)c2)n1` yielded a GI50 of 0.588 µM and a TGI of 23.7 µM. `N#CC1c2ccccc2C=CN1C(=O)CCCl` (stereo not drawn) was tested, and the GI50 was 16.9 µM and the TGI was 32 µM. With `O=C1NC(=N[C@@H](CO)c2ccccc2)S/C1=C\c1ccc2ncccc2c1` the GI50 was 11.2 µM and the TGI was over 25 µM. For `O=C1/C(=C/c2ccc(Cl)c(Cl)c2)CN(C(=O)CCN2CCC(=NO)CC2)C/C1=C\c1ccc(Cl)c(Cl)c1`, the GI50 was 0.807 µM and the TGI was 2.11 µM. Molecule `CCN(CC)CCCNc1ccc(C)c2sc3ccccc3c(=O)c12` has a GI50 of 0.488 µM and a TGI of 1.77 µM. Molecule `CCNc1nc(O)c(/C=C2\C=Nc3ncccc32)s1` has a GI50 of 4.92 µM and a TGI of 36.7 µM. Molecule `O=C(/C=C/C12c3ccccc3C(c3ccccc31)C1C(=O)NC(=O)C12)c1ccccn1` (stereo not drawn) has a GI50 of 1.88 µM and a TGI of 3.51 µM. `CC1=C(C(=O)Nc2ccccc2)C(c2ccc(N(C)C)cc2)C(C(=O)Nc2ccccc2)=C(C)N1` was tested, and the TGI was 23.4 µM.

What follows are molecules tested on SR leukemia (assay: NCI anticancer screen, dose series, 48 h).
`Cc1nn(-c2ccc(Cl)cc2)c2ncnc(N/N=C/c3ccccc3O)c12` was tested, and the GI50 was 0.445 µM and 0.206 µM and the TGI was 43.5 µM. `COc1ccc2c(c1)C(=O)c1c-2c(Nc2ccccc2OC)nc2ccccc12` gave a GI50 of over 100 µM and a TGI of over 100 µM. `COc1ccc2c(N)ncc(C#Cc3cc(C(=O)Nc4ccc(CN5CCN(C)CC5)c(C(F)(F)F)c4)cnc3C)c2c1` gave a GI50 of 0.649 µM and a TGI of 1.97 µM. `COc1cc2c(N3CCN(C(=O)Nc4ccc(OC(C)C)cc4)CC3)ncnc2cc1OCCCN1CCCCC1` was tested, and the GI50 was 9.55 µM and the TGI was 46.2 µM. Work on `Nc1ncc(Cc2ccc3c(c2)OCO3)c(N)n1` yielded a TGI of over 100 µM. In the case of `c1ccc(-c2[nH]ncc2-c2ccnc(-c3ccc(OCCn4ccnc4)cc3)c2)nc1`, the GI50 is reported as over 25 µM and the TGI is reported as over 25 µM. Molecule `O=C1c2cccc(Oc3ccccc3)c2C(=O)c2cccc(Oc3ccccc3)c21` has a GI50 of 77.5 µM and a TGI of over 100 µM. `O=C(OCc1ccc2c(Br)cc(Br)c(O)c2n1)c1cc2ccccc2[nH]1` gave a GI50 of 0.43 µM and a TGI of 4.22 µM. In the case of `CC(C)(CO)CNC(=O)c1ccc2[nH]c(O)c(N=Nc3ccc(S(N)(=O)=O)cc3)c2c1`, the GI50 is reported as over 25 µM and the TGI is reported as over 25 µM. With `Cc1cc(O)c2c(c1)C(=O)C=CC2=O` the GI50 was 1.14 µM and 0.33 µM. For `CC1(C)N=C(N)N=C(N)N1c1ccc(CCC(=O)Nc2ccc(S(=O)(=O)F)cc2)cc1`, the GI50 was 0.209 µM and the TGI was over 100 µM. Work on `N#CC1(c2ccc(NC(=O)c3cccnc3NCc3ccncc3)cc2)CCCC1` yielded a GI50 of 13 µM and a TGI of 39.5 µM. `Cn1nccc1Nc1nccc(-c2ccn([C@H](CO)c3ccc(Cl)c(F)c3)c(=O)c2)n1` gave a GI50 of 25.1 µM and a TGI of over 100 µM. In the case of `N#CC1c2ccccc2C=CN1C(=O)CCCl` (stereo not drawn), the GI50 is reported as 3.07 µM and the TGI is reported as 26.7 µM. In the case of `O=C1NC(=N[C@@H](CO)c2ccccc2)S/C1=C\c1ccc2ncccc2c1`, the GI50 is reported as 1.53 µM and the TGI is reported as 12.7 µM. With `O=C1/C(=C/c2ccc(Cl)c(Cl)c2)CN(C(=O)CCN2CCC(=NO)CC2)C/C1=C\c1ccc(Cl)c(Cl)c1` the GI50 was 0.353 µM and the TGI was over 100 µM. For `CCN(CC)CCCNc1ccc(C)c2sc3ccccc3c(=O)c12`, the GI50 was 0.268 µM and the TGI was 0.988 µM. `CCNc1nc(O)c(/C=C2\C=Nc3ncccc32)s1` showed a GI50 of 1.6 µM and a TGI of over 100 µM. `O=C(/C=C/C12c3ccccc3C(c3ccccc31)C1C(=O)NC(=O)C12)c1ccccn1` (stereo not drawn) gave a GI50 of 0.782 µM and a TGI of 7.31 µM. `CC1=C(C(=O)Nc2ccccc2)C(c2ccc(N(C)C)cc2)C(C(=O)Nc2ccccc2)=C(C)N1` showed a TGI of over 92.8 µM.

What follows are molecules tested on IGROV1 ovarian (assay: NCI anticancer screen, dose series, 48 h).
In the case of `Cc1nn(-c2ccc(Cl)cc2)c2ncnc(N/N=C/c3ccccc3O)c12`, the GI50 is reported as 0.534 µM and 0.485 µM and the TGI is reported as 10.5 µM and 8.48 µM. With `COc1ccc2c(c1)C(=O)c1c-2c(Nc2ccccc2OC)nc2ccccc12` the GI50 was over 100 µM and the TGI was over 100 µM. Molecule `COc1ccc2c(N)ncc(C#Cc3cc(C(=O)Nc4ccc(CN5CCN(C)CC5)c(C(F)(F)F)c4)cnc3C)c2c1` has a GI50 of 0.437 µM and a TGI of 2.11 µM. `COc1cc2c(N3CCN(C(=O)Nc4ccc(OC(C)C)cc4)CC3)ncnc2cc1OCCCN1CCCCC1` showed a GI50 of 31.8 µM and a TGI of 97.7 µM. Work on `Nc1ncc(Cc2ccc3c(c2)OCO3)c(N)n1` yielded a TGI of over 100 µM. `c1ccc(-c2[nH]ncc2-c2ccnc(-c3ccc(OCCn4ccnc4)cc3)c2)nc1` was tested, and the GI50 was over 25 µM and the TGI was over 25 µM. `O=C1c2cccc(Oc3ccccc3)c2C(=O)c2cccc(Oc3ccccc3)c21` showed a GI50 of over 100 µM and a TGI of over 100 µM. In the case of `O=C(OCc1ccc2c(Br)cc(Br)c(O)c2n1)c1cc2ccccc2[nH]1`, the GI50 is reported as 0.66 µM and the TGI is reported as 1.91 µM. Work on `CC(C)(CO)CNC(=O)c1ccc2[nH]c(O)c(N=Nc3ccc(S(N)(=O)=O)cc3)c2c1` yielded a GI50 of over 25 µM and a TGI of over 25 µM. `Cc1cc(O)c2c(c1)C(=O)C=CC2=O` was tested, and the TGI was 27.4 µM and 24.1 µM. `CC1(C)N=C(N)N=C(N)N1c1ccc(CCC(=O)Nc2ccc(S(=O)(=O)F)cc2)cc1` showed a GI50 of 0.0723 µM and a TGI of over 100 µM. Work on `N#CC1(c2ccc(NC(=O)c3cccnc3NCc3ccncc3)cc2)CCCC1` yielded a GI50 of 20.5 µM and a TGI of over 89.8 µM. `Cn1nccc1Nc1nccc(-c2ccn([C@H](CO)c3ccc(Cl)c(F)c3)c(=O)c2)n1` gave a GI50 of 22.9 µM and a TGI of over 100 µM. `N#CC1c2ccccc2C=CN1C(=O)CCCl` (stereo not drawn) was tested, and the GI50 was 6.68 µM and the TGI was 13.8 µM. Work on `O=C1NC(=N[C@@H](CO)c2ccccc2)S/C1=C\c1ccc2ncccc2c1` yielded a GI50 of 4.71 µM and a TGI of over 18.3 µM. Work on `O=C1/C(=C/c2ccc(Cl)c(Cl)c2)CN(C(=O)CCN2CCC(=NO)CC2)C/C1=C\c1ccc(Cl)c(Cl)c1` yielded a GI50 of 0.534 µM and a TGI of 1.41 µM. In the case of `CCN(CC)CCCNc1ccc(C)c2sc3ccccc3c(=O)c12`, the GI50 is reported as 1.22 µM and the TGI is reported as 2.92 µM. `CCNc1nc(O)c(/C=C2\C=Nc3ncccc32)s1` showed a GI50 of 4.66 µM and a TGI of over 100 µM. `O=C(/C=C/C12c3ccccc3C(c3ccccc31)C1C(=O)NC(=O)C12)c1ccccn1` (stereo not drawn) showed a GI50 of 1.36 µM and a TGI of 6.53 µM.
